Measurements published in patent US4950686A, “Anti-mycoplasma agent” (Shionogi & Co., Ltd., priority 1986, dated 1990).
Values after ≈ are worked out from the molar mass of the structure shown. Structures can show the parent of a compound that is named as a salt. Where two headings read alike, the source gives them in different places.

Columns and labels:
[1] = test system: Mycoplasma gallisepticum S6 (standard strain); test: Anti-mycoplasma activity in vitro (MIC, broth dilution), strain S6; type: cell-based; conditions: Mg S6, 37° C., 7 days
Procedure: (§1) (1) Anti-mycoplasma activity test in vitro
(§2) MIC values of each of Tropolones were measured on the following strains according to the following method.
(§3) (a) Mycoplasma gallisepticum
(§4) Medium: Chick PPLO broth supplemented with 20% equine serum (Eiken Kagaku Co., Ltd.)
(§5) Method: Broth dilution method
(§6) Inoculum: Culture incubated at 37° C. for 24-48 hr which is diluted with broth to 10^6 CCU/ml immediately before the use.
(§7) To 1.6 ml of the broth is added 0.2 ml of an agent which has been subjected to 2-fold dilution and then added 0.2 ml of inoculum, which is incubated at 37° C. for 7 days.

[2] = test system: Mycoplasma gallisepticum T-7-T (wild strain, tylosin-resistant); test: Anti-mycoplasma activity in vitro (MIC, broth dilution), strain T-7-T; type: cell-based; conditions: Mg T-7-T, 37° C., 7 days
Procedure: as §1, §2, §3
T-7-T (wild strain, tylosin-resistant)
as §4, §5, §6, §7

[3] = test system: Mycoplasma gallisepticum MR-1 (wild strain, tylosin-resistant); test: Anti-mycoplasma activity in vitro (MIC, broth dilution), strain MR-1; type: cell-based; conditions: Mg MR-1, 37° C., 7 days
Procedure: as §1, §2, §3
MR-1 (wild strain, tylosin-resistant)
as §4, §5, §6, §7

[4] = test system: Mycoplasma hyopneumoniae ST-11 (standard strain); test: Anti-mycoplasma activity in vitro (MIC, broth dilution), strain ST-11; type: cell-based; conditions: Mh ST-11
Procedure: as §1, §2
(b) Mycoplasma hyopneumoniae
Strain: ST-11 (standard strain)
Medium: 850 ml of Hanks' solution supplemented with 0.5% lactoalbumin, 50 ml of 25% yeast, 100 ml of equine serum and 4-6 ml of 0.5% phenol red (pH 7.4-7.6)
as §5
Inoculum: Culture which is incubated for 3-4 days and diluted 10 times with the broth if color of the broth becomes yellow then. If it needs over 4 days until color of the broth becomes yellow, it is further subcultured. This is diluted 10 times with the broth to give inoculum.
Assay is done in the same manner as in the above (a).

[5] = test system: Mycoplasma gallisepticum S6 (standard strain); test: Mycoplasma gallisepticum air-sac infection method in chicken, strain S6; type: in vivo, Mycoplasma gallisepticum; SPF chicken (white leghorn); conditions: 200 mg/kg × once oral, 20 mg/ml sol. c; for Index of Isolation: inoculum 6.3 × 10^4, trachea ND, range 0-6.0
Procedure: (2) Test of Effectiveness Mycoplasma gallisepticum air-sac infection method
Inoculation: To the right air-sac of 9 days old SPF chicken (a white leghorn) which has abstained from water and feed one day before is inoculated 0.20-0.25 ml/chicken of fresh mycoplasma culture incubated for 24-48 hr and diluted with broth (usually 100 times). The concentration in Table 2 is shown in a unit of mg/ml.
Medium: Chick PPLO broth supplemented with 15% equine serum (Eiken Kagaku Co., Ltd.)
Administration: A compound of this invention dissolved or suspended in the following solution is orally and forcibly administered once by a cannula immediately after the infection.
Anatomization and Isolation of Microorganism: The chickens are anatomized 5 days after the infection, and the right and left air sacs are investigated whether they are attacked with a disease or not. The change caused by the disease is represented in four degrees; -: no change, +: slight, ++: medium and +++: serious. Microorganism is isolated from the right and left air-sacs and the trachea by using a sterilized applicator.
Judgement: Judgement is done through an index of an air-sac disease and an index of a microorganism-isolation.
Index of an air-sac-disease: First, indexes in the right and left air-sacs are separately calculated according to the following formula;
{degree of disease (0-3)×chickens}/anatomized chickens
and the index is calculated by the following formula;
(index of right air-sac)×1+(index of left air-sac)×2
Index of a microorganism isolation:
P: chickens from the right air-sac of which microorganism is isolated,
Q: chickens from the trachea of which microorganism is isolated,
R: chickens from the left air-sac of which microorganism is isolated, and
S: chickens investigated.

[6] = inoculum 6.3 × 10^4, calcium salt
[7] = Mycoplasmoides gallisepticum, 168 h, read-out: MIC

For `O=c1cccccc1O.O=c1cccccc1O.[Cu]` [Compound 2, Tropolone copper complex], the MIC [1] was 3.13 µg/mL, the MIC [2] was 3.13 µg/mL and the MIC [3] was 3.13 µg/mL. The MIC [4] was 0.78 µg/mL.

In the case of `O=c1cccccc1[O-].O=c1cccccc1[O-].[Ni+2]` [Compound 4, Tropolone nickel complex], the MIC [1] is reported as 1.56 µg/mL, the MIC [2] is reported as 3.13 µg/mL and the MIC [3] is reported as 3.13 µg/mL. The MIC [4] was 0.78 µg/mL.

For `O=c1cccccc1O` [Compound 5, Tropolone calcium salt], the MIC ([1]; calcium salt) was 3.13 µg/mL, the MIC ([3]; calcium salt) was 1.56 µg/mL and the “Change of air-sac, left: + (chickens)” value ([5]; inoculum 6.3 × 10^4) was 0. For the same molecule, the “Change of air-sac, left: ++ (chickens)” value ([5]; inoculum 6.3 × 10^4) was 0, the “Change of air-sac, left: +++ (chickens)” value ([5]; inoculum 6.3 × 10^4) was 0 and the “Change of air-sac, left: - (chickens)” value ([5]; inoculum 6.3 × 10^4) was 5. The “Change of air-sac, right: ++ (chickens)” value ([5]; inoculum 6.3 × 10^4) was 0, the “Change of air-sac, right: +++ (chickens)” value ([5]; inoculum 6.3 × 10^4) was 0 and the “Isolation, L (left air-sac)” value ([5]; inoculum 6.3 × 10^4) was 0. The “Isolation, R (right air-sac)” value ([5]; inoculum 6.3 × 10^4) was 1, the “Mycoplasma Isolated Chickens” value ([5]; inoculum 6.3 × 10^4) was 1 and the “Change of air-sac, right: + (chickens)” value [5, 6] was 0. The “Change of air-sac, right: - (chickens)” value [5, 6] was 5, the “Index of Disease” value ([5]; inoculum 6.3 × 10^4, range 0-9.0, calcium salt) was 0 and the “Index of Isolation” value [5] was 0.2.

In the case of `O=c1cccccc1O` [Compound 6, Tropolone magnesium salt], the MIC [1] is reported as 1.56 µg/mL, the MIC [2] is reported as 1.56 µg/mL and the MIC [3] is reported as 1.56 µg/mL. For the same molecule, the MIC [4] was 0.78 µg/mL.

Molecule `O=c1cccccc1O` [Compound 8, Tropolone sodium salt] has an MIC ([1]; sodium salt) of 1.56 µg/mL, an MIC ([2]; sodium salt) of 1.56 µg/mL and an MIC ([3]; sodium salt) of 1.56 µg/mL. It also gave an MIC ([4]; sodium salt) of 0.78 µg/mL.

With `O=c1cccccc1O` [Compound 9, Tropolone ethanolamine salt] the MIC [1] was 3.13 µg/mL, the MIC [3] was 3.13 µg/mL and the “Change of air-sac, left: + (chickens)” value ([5]; inoculum 6.3 × 10^4) was 0. For the same molecule, the “Change of air-sac, left: ++ (chickens)” value ([5]; inoculum 6.3 × 10^4) was 0, the “Change of air-sac, left: +++ (chickens)” value ([5]; inoculum 6.3 × 10^4) was 0 and the “Change of air-sac, left: - (chickens)” value ([5]; inoculum 6.3 × 10^4) was 5. For the same molecule, the “Change of air-sac, right: + (chickens)” value ([5]; inoculum 6.3 × 10^4) was 1, the “Change of air-sac, right: ++ (chickens)” value ([5]; inoculum 6.3 × 10^4) was 0 and the “Change of air-sac, right: +++ (chickens)” value ([5]; inoculum 6.3 × 10^4) was 0. The “Change of air-sac, right: - (chickens)” value ([5]; inoculum 6.3 × 10^4) was 4, the “Isolation, L (left air-sac)” value ([5]; inoculum 6.3 × 10^4) was 0 and the “Isolation, R (right air-sac)” value ([5]; inoculum 6.3 × 10^4) was 1. For the same molecule, the “Mycoplasma Isolated Chickens” value ([5]; inoculum 6.3 × 10^4) was 1, the “Index of Disease” value ([5]; inoculum 6.3 × 10^4, range 0-9.0) was 0.2 and the “Index of Isolation” value [5] was 0.2.

`O=c1cccccc1O` [Compound 10, Tropolone n-propylamine salt] gave an MIC [1] of 3.13 µg/mL, an MIC [2] of 3.13 µg/mL and an MIC [3] of 3.13 µg/mL. For the same molecule, the MIC [4] was 0.78 µg/mL.

With `O=C(Oc1cccccc1=O)c1ccccc1` [Compound 14, O-Benzoyltropolone] the MIC [1, 7] was 6.25 µg/mL (≈ 27.6 µM), the MIC [2, 7] was 6.25 µg/mL (≈ 27.6 µM) and the MIC [3, 7] was 6.25 µg/mL (≈ 27.6 µM). For the same molecule, the MIC ([4]; Mesomycoplasma hyopneumoniae, read-out: MIC) was 0.78 µg/mL (≈ 3.45 µM).
